Laboratory results as given in BindingDB's records for doi:10.1073/pnas.88.17.7491 (Duke University, 1991).

Molecular target: D(1A) dopamine receptor (Homo sapiens, UniProt P21728)
Sequence (P21728 whole entry): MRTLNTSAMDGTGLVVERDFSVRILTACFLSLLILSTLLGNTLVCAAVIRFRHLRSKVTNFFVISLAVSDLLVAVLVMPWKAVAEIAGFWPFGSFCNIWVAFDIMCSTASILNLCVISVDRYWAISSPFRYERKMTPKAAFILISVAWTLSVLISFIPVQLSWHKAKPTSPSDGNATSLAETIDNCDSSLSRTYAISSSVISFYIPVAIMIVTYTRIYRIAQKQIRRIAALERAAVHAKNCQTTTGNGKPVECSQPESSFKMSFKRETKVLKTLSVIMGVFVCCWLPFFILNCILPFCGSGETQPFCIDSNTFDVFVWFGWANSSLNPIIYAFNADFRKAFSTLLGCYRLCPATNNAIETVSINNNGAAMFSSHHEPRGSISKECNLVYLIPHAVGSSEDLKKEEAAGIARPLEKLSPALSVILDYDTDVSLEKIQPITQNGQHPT

Row | Compound | Ki [nM]
1 | CN1CCN(C2=Nc3cc(F)ccc3Cc3ccccc32)CC1 | 75
2 | OCCC1CCN(CCC=C2c3ccc(F)cc3Sc3ccc(C(F)(F)F)cc32)CC1 [CAS_60197-32-2] | 0.65
3 | O=C(O)c1ccccc1C(=O)Nc1cccc2ccccc12 [NPA,(+)] | 1540
